Converted amounts (≈) assume the structure as drawn.
Key:
[1] = biological target: Tyrosine-protein kinase ABL1 (Homo sapiens, UniProt P00519); experiment: Inhibition of ABL1 (unknown origin)
[2] = physchem; settings: buffer, pH 7.4
[3] = Inhibition of WNT (unknown origin) by luciferase reporter assay; parameters: species or system Homo sapiens
[4] = Inhibition of MAPK (unknown origin); parameters: species or system Homo sapiens
[5] = system: Trypanosoma cruzi; experiment: Antitrypanosomal activity against Trypanosoma cruzi trypomastigotes infected in mouse 3T3 cells assessed as reduction in parasite growth; format: functional, organism-based; settings: NIH3T3
[6] = Inhibition of LFA-1/ICAM-1 (unknown origin) interaction; parameters: species or system Homo sapiens
[7] = Dissociation constant, pKa of the compound; format: physicochemical
[8] = system: Hepatitis C virus; experiment: microbe, parasite or virus in culture; settings: GT1a-genotype
[9] = system: Hepatitis C virus; experiment: microbe, parasite or virus in culture; settings: GT1b-genotype
[10] = Solubility of compound at pH 6.8 by RapidFire mass spectrometry; format: physicochemical; settings: buffer
[11] = Solubility of the compound in FaSSIF at pH 6.8 by RapidFire mass spectrometry; format: ADME; settings: simulated gi fluid
[12] = Clearance in rat liver microsomes; format: ADME, Microsome
[13] = biological target: CYP3A4 (Homo sapiens, UniProt P08684); experiment: Inhibition of CYP3A4 (unknown origin); format: ADME
Chain of CYP3A4 (P08684 whole entry): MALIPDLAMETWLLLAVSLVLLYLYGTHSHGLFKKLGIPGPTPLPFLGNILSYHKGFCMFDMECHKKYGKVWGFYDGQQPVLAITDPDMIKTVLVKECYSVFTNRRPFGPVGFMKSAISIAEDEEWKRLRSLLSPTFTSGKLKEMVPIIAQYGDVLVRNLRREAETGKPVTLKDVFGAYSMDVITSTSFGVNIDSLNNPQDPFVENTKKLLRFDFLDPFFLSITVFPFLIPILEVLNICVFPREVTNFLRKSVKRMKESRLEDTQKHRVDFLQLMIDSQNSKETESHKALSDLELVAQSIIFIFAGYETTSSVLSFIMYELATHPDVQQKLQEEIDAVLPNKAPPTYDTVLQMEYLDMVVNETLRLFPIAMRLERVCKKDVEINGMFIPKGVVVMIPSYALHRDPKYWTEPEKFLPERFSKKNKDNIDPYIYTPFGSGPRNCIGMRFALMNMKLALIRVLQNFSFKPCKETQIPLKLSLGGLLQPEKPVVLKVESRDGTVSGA

[14] = biological target: Voltage-gated inwardly rectifying potassium channel KCNH2 (Homo sapiens, UniProt Q12809); experiment: Inhibition of hERG channel; format: toxicity
Chain of Voltage-gated inwardly rectifying potassium channel KCNH2 (Q12809 whole entry): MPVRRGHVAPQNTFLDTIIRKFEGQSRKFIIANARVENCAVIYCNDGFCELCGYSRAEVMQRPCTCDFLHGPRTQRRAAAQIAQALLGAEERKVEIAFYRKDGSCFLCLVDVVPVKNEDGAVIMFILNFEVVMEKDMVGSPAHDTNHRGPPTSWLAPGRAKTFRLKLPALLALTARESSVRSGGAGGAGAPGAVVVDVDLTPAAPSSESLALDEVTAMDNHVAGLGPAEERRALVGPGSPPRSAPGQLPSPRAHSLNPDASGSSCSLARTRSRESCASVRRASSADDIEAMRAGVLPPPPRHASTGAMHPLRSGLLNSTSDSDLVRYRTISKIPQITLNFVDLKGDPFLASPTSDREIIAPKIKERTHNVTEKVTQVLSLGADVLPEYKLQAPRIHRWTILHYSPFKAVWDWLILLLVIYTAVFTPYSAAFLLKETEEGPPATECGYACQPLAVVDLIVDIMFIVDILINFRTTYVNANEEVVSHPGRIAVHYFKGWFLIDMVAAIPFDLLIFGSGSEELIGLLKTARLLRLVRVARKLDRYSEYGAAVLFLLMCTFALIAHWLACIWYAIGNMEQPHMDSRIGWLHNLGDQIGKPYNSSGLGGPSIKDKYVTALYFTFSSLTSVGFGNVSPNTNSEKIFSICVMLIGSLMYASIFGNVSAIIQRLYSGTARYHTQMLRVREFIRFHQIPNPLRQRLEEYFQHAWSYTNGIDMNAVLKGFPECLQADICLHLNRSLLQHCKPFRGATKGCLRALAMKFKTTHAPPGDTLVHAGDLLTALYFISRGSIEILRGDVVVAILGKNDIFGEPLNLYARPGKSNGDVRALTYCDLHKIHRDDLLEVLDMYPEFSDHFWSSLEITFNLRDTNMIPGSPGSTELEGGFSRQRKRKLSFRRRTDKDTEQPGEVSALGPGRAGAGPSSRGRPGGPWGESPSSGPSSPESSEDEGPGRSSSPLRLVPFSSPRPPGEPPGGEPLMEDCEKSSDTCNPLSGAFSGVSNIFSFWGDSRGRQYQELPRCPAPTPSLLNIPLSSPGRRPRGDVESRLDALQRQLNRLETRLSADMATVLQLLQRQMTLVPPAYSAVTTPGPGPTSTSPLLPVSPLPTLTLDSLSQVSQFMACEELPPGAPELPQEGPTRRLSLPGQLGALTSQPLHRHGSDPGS

[15] = Solubility of the compound; format: physicochemical
[16] = Prodrug conversion in rat plasma assessed as esterase mediated intermediate formation by measuring half life; format: ADME, cell-free
[17] = Prodrug conversion in rat plasma assessed as formation of Isavuconazole from intermediate by measuring half life; format: ADME, cell-free
[18] = Lipophilicity, logD of the compound at pH 7.4; format: physicochemical; settings: buffer
[19] = system: MDA-MB-231; experiment: Antiproliferative activity against human MDA-MB-231 cells assessed as cell growth inhibition at 30 uM relative to control; format: functional
[20] = system: MIA PaCa-2; experiment: Antiproliferative activity against human MIA PaCa-2 cells assessed as cell growth inhibition at 30 uM relative to control; format: functional
[21] = system: SU-DHL10; experiment: Antiproliferative activity against human SU-DHL-10 cells assessed as cell growth inhibition at 30 uM relative to control; format: functional
[22] = Aqueous solubility of compound at pH 7.4; format: physicochemical
[23] = Half life in rat hepatocytes; format: ADME, cell-based, Hepatocyte
[24] = Metabolic stability in human liver microsomes assessed as parent compound remaining; format: ADME, Microsome
[25] = system: Hepatitis C virus; experiment: Antiviral activity against HCV GT3a-genotype assessed as inhibition of viral replication; format: functional, organism-based, Hepacivirus hominis
[26] = system: Hepatitis C virus; experiment: Antiviral activity against HCV GT2a-genotype assessed as inhibition of viral replication; format: functional, organism-based, Hepacivirus hominis
[27] = system: Hepatitis C virus; experiment: Antiviral activity against HCV GT4a-genotype assessed as inhibition of viral replication; format: functional, organism-based, Hepacivirus hominis
[28] = biological target: Beta-2 adrenergic receptor (Bos taurus, UniProt Q28044); experiment: Antagonist activity at bovine lung membrane adrenergic beta-2 receptor; format: cell membranes
Chain of Beta-2 adrenergic receptor (Q28044 whole entry): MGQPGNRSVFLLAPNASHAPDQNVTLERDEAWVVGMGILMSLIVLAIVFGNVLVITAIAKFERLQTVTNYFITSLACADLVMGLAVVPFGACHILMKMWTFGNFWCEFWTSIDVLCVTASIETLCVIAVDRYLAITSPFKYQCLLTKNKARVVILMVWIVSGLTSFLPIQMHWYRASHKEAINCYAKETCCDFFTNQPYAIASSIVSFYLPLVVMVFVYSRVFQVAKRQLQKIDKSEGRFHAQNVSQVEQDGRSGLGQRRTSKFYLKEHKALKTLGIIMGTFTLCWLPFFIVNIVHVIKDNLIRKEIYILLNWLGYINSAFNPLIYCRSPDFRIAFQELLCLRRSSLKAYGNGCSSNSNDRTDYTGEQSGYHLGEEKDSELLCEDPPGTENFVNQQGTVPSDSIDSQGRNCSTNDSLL

[29] = biological target: Beta-1 adrenergic receptor (Rattus norvegicus, UniProt P18090)
Chain of Beta-1 adrenergic receptor (P18090 whole entry): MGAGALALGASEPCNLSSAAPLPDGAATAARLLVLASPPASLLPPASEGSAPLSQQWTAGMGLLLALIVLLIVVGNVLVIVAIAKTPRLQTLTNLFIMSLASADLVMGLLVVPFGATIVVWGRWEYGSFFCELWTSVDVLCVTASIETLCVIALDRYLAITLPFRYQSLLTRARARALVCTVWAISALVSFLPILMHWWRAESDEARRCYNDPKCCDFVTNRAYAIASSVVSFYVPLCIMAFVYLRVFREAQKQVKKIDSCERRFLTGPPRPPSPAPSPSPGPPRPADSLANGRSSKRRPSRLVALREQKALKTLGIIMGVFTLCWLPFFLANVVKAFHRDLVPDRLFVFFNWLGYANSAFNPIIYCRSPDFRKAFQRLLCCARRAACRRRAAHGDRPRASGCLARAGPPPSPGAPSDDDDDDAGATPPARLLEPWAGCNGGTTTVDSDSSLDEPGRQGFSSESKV

[30] = system: Influenza A virus; experiment: Antiviral activity against Influenza A virus A/PR/8/34 (PR8) strain infected in MDCK cells assessed as reduction in viral infection incubated for 72 hrs by crystal violet staining based assay; format: functional, organism-based
[31] = Inhibition of human rhinovirus 3C protease; parameters: species or system Human rhinovirus sp.
[32] = system: Human rhinovirus sp.; experiment: Inhibition of human rhinovirus 3C protease assessed as kobs/[I]
[33] = Aqueous solubility of compound; format: physicochemical
[34] = in vitro; settings: human, liver microsomes
[35] = in vitro; settings: human, Caco-2

Chain of Tyrosine-protein kinase ABL1 (P00519 whole entry): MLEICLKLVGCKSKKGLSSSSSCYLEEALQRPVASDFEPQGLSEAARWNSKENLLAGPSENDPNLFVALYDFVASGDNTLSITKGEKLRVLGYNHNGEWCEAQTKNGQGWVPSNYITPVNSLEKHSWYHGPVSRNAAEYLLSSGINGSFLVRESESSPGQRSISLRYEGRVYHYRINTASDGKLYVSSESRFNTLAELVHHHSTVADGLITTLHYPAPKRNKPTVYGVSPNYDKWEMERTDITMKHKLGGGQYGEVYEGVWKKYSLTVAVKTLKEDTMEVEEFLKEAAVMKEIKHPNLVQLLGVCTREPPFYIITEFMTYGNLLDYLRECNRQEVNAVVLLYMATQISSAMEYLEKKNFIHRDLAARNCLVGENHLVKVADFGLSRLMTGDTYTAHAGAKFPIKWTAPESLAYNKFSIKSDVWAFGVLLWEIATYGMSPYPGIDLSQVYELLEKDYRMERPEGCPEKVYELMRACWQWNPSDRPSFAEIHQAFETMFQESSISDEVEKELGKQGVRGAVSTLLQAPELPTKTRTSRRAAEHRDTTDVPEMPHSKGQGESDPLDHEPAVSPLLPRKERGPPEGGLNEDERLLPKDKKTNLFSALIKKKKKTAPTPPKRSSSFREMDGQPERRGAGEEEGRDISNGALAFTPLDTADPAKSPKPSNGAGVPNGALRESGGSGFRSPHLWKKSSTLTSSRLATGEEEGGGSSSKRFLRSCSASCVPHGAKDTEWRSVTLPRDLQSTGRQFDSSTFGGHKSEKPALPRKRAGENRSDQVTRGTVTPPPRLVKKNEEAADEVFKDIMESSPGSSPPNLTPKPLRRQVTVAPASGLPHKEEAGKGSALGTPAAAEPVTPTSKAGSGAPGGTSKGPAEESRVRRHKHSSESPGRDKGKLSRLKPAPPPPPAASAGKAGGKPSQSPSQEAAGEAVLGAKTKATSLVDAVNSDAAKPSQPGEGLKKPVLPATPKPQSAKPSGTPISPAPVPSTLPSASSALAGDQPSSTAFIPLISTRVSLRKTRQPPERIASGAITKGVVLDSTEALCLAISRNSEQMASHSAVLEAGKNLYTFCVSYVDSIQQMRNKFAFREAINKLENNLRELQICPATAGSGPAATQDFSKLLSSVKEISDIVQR

SMILES: Cc1ccc(NC(=O)CCCCN2CCN(C)CC2)cc1Nc1nccc(-c2cccnc2)n1
- IC50 [1]: > 1000 nM
- solubility [2]: 356 µM

SMILES: Cc1ccc(NC(=O)CCCCCN2CCN(C)CC2)cc1Nc1nccc(-c2cccnc2)n1
- IC50 [1]: > 1000 nM

SMILES: N#Cc1ccc(Br)cc1
- solubility [2]: 194 µg/mL

SMILES: Cc1cc(-c2ccc(CNC(=O)c3ccc(-c4cnccn4)cc3)cc2)ccn1
- EC50 [3]: 0.7 nM

SMILES: COCCn1c(SC)nc(-c2ccc(F)cc2)c1-c1cccc(NC(=O)CCc2ccc(OC)cc2)c1
- IC50 [4]: 48 nM
- solubility [2]: 0.0473 µg/mL

SMILES: O=C(Cn1ccnc1[N+](=O)[O-])NCC1=C/C=C\C=C/C=C\1
- EC50 [5]: 2300 nM

SMILES: O=C(/C=C/c1ccc(Sc2ccc(Cl)cc2Cl)c(Br)c1)NCCCN1CCCC1=O
- IC50 [6]: 650 nM

SMILES: NC12CC(C1)C2
- pKa [7]: 11

SMILES: Cc1ccc(NC(=O)[C@H]2C[C@@H]2CN2CCN(C)CC2)cc1Nc1nccc(-c2cccnc2)n1
- IC50 [1]: > 1000 nM

SMILES: Cc1ccc(NC(=O)[C@H]2C[C@@H](CN3CCN(C)CC3)C2)cc1Nc1nccc(-c2cccnc2)n1
- IC50 [1]: > 1000 nM

SMILES: COC(=O)N[C@@H](C(=O)N1CCC[C@@H]1c1ncc(-c2cc3sc(-c4cnc([C@H]5CCCN5C(=O)[C@H](NC(=O)OC)C(C)C)[nH]4)cc3s2)[nH]1)C(C)C
- EC50 [8]: 10 nM
- EC50 [9]: < 1 nM

SMILES: O=C(NCCS(=O)(=O)c1ccc(C(F)(F)F)cn1)c1ccc(-c2ccccc2)cc1
- solubility [10]: < 0.004 µM
- solubility [11]: < 0.004 µM
- CLhep predicted [12]: 39 mL/min/kg
- IC50 [13]: > 20000 nM
- IC50 [14]: > 30000 nM

SMILES: Cc1ccc(NC(=O)C23CC(CN4CCN(C)CC4)(C2)C3)cc1Nc1nccc(-c2cccnc2)n1
- IC50 [1]: > 1000 nM
- solubility [2]: 2680 µM

SMILES: Cc1cc(-c2ccc(CNC(=O)C34CC(c5cnccn5)(C3)C4)cc2)ccn1
- EC50 [3]: > 50 nM

SMILES: CC(C)(C)c1cccc(C(=O)O)c1
- solubility [2]: 8080 µg/mL

SMILES: O=C(Cn1ccnc1[N+](=O)[O-])NCc1ccccc1 [BENZNIDAZOLE]
- EC50 [5]: 6100 nM

SMILES: Cc1ccc(NC(=O)[C@@H]2C[C@H]2CN2CCN(C)CC2)cc1Nc1nccc(-c2cccnc2)n1
- IC50 [1]: > 1000 nM
- solubility [2]: 3720 µM

SMILES: CNCC(=O)OCc1cccnc1N(C)C(=O)OC(C)[n+]1cnn(C[C@](O)(c2cc(F)ccc2F)[C@H](C)c2nc(-c3ccc(C#N)cc3)cs2)c1 (stereo partly drawn)
- solubility [15]: > 100000 µg/mL
- t1/2 [16]: < 1 min
- t1/2 [17]: < 1 min

SMILES: Cc1ccc(NC(=O)[C@H]2CC[C@H](CN3CCN(C)CC3)CC2)cc1Nc1nccc(-c2cccnc2)n1
- IC50 [1]: > 1000 nM
- solubility [2]: 56 µM

SMILES: CNCC(=O)OCc1ccccc1N(C)C(=O)OC(C)[n+]1cnn(C[C@](O)(c2cc(F)ccc2F)[C@H](C)c2nc(-c3ccc(C#N)cc3)cs2)c1 (stereo partly drawn)
- solubility [15]: 1000 µg/mL
- t1/2 [16]: < 2 min
- t1/2 [17]: 13 min

SMILES: O=C(c1ccccc1-c1ccccc1)N1CCCCC1
- logD [18]: 3.5
- solubility [2]: 397 µM

SMILES: Oc1cc(O)cc(/C=C/C23CC(O)(C2)C3)c1
- inhibition at 30 µM [19]: 22%
- inhibition at 30 µM [20]: 30%
- inhibition at 30 µM [21]: 41%
- logD [18]: 1.9
- solubility [22]: 619 µg/mL (≈ 2840 µM)
- half-life [23]: 24 min

SMILES: COCCn1c(SC)nc(-c2ccc(F)cc2)c1-c1cccc(NC(=O)CCc2ccccc2OC)c1
- IC50 [4]: 93 nM
- solubility [2]: 0.0255 µg/mL

SMILES: COC(=O)N[C@@H](C(=O)N1CCC[C@@H]1c1ncc(-c2cn3cc(-c4cnc([C@H]5CCCN5C(=O)[C@H](NC(=O)OC)C(C)C)[nH]4)sc3n2)[nH]1)C(C)C
- EC50 [9]: < 1 nM

SMILES: CC(=O)N1CCN(c2cc(-c3ccc(Sc4ccccc4C(C)C)c(C(F)(F)F)c3)ncn2)CC1
- IC50 [6]: 220 nM

SMILES: CN1CCN(c2ccc(Nc3cc(C4CC4)[nH]n3)nc2)CC1
- Stability [24]: 73%

SMILES: COC(=O)N[C@@H](C(=O)N1CCC[C@@H]1c1ncc(-c2csc3c(-c4cnc([C@H]5CCCN5C(=O)[C@H](NC(=O)OC)C(C)C)[nH]4)csc23)[nH]1)C(C)C
- EC50 [25]: 0.1 nM
- EC50 [26]: < 0.1 nM
- EC50 [27]: < 0.1 nM
- EC50 [8]: < 0.1 nM

SMILES: CC(=O)N1CCN(c2nc(-c3ccc(Sc4ccccc4C(C)C)c(C(F)(F)F)c3)cs2)CC1
- IC50 [6]: 3000 nM

SMILES: CC(C)NCC(O)c1ccc(Cl)c(Cl)c1 (stereo not drawn) [DICHLOROISOPROTERENOL]
- IC50 [28]: 977 nM
- IC50 [29]: 115 nM

SMILES: CC(=O)Nc1nc2c(Oc3cc(N4CCN(CC(F)(F)F)CC4)ncn3)cccc2s1
- solubility [15]: > 200 µg/mL

SMILES: CN1CCN(c2ccc(Nc3cc(C4CC4)[nH]n3)nn2)CC1
- Stability [24]: 81%

SMILES: CC(=O)Nc1nc2c(Oc3cc(N4CCN([C@H](C)c5ccc(F)cc5)CC4)ncn3)cccc2s1
- solubility [15]: > 200 µg/mL

SMILES: N#Cc1cccc(Br)c1
- solubility [2]: 637 µg/mL

SMILES: COc1ccccc1N1CCN(CCCCNC(=O)c2ccc(-c3ccccc3)cc2)CC1
- solubility [10]: < 0.005 µM
- solubility [11]: 0.021 µM (≈ 9.32 ng/mL)
- CLhep predicted [12]: 51 mL/min/kg
- IC50 [13]: > 20000 nM

SMILES: CC(C)c1ccccc1Sc1ccc(C2CC2C(=O)NCCCN2CCCC2=O)c(Cl)c1Cl (racemic)
- IC50 [6]: 7 nM

SMILES: O=C(O)/C(O)=C/C(=O)C1CCCCC1
- IC50 [30]: 29400 nM

SMILES: CC(=O)N1CCN(c2nc(-c3ccc(Sc4ccccc4C(C)C)c(C(F)(F)F)c3)co2)CC1
- IC50 [6]: 2500 nM

SMILES: CCOC(=O)/C=C/[C@H](C[C@@H]1CCNC1=O)NC(=O)[C@H](Cc1ccc(F)c(F)c1)n1cccc(NC(=O)c2cc(C)on2)c1=O
- EC50 [31]: 11 nM
- Ratio [32]: 1.8e+06 M/s
- solubility [33]: 25 µg/mL (≈ 40.9 µM)
- remaining at 0.5 h [34]: 19%
- Papp A→B [35]: 35 ×10⁻⁶ cm/s

SMILES: CC(=O)c1ccccc1C(C)(C)C
- solubility [2]: 12100 µg/mL

SMILES: N#Cc1ccccc1Br
- solubility [2]: 412 µg/mL

SMILES: CN1CCN(c2ccc(Nc3cc(C4CC4)[nH]n3)cc2)CC1
- Stability [24]: 92%

SMILES: COc1ccccc1N1CCN(CCCCNC(=O)c2ccc(B3C=CC=CN3)cc2)CC1
- solubility [10]: 0.046 µM (≈ 20.4 ng/mL)
- solubility [11]: 0.22 µM (≈ 97.8 ng/mL)
- CLhep predicted [12]: 53 mL/min/kg

SMILES: Cc1ccc(NC(=O)[C@@H]2CC[C@H](CN3CCN(C)CC3)C2)cc1Nc1nccc(-c2cccnc2)n1
- IC50 [1]: > 1000 nM
- solubility [2]: 885 µM

SMILES: Oc1ccc(/C=C/c2cc(O)cc(O)c2)cc1 [RESVERATROL]
- inhibition at 30 µM [19]: 20%
- inhibition at 30 µM [20]: 30%
- inhibition at 30 µM [21]: 46%
- logD [18]: 2.9
- solubility [22]: 19 µg/mL (≈ 83.2 µM)
- half-life [23]: < 7.5 min

SMILES: COCCn1c(SC)nc(-c2ccc(F)cc2)c1-c1cccc(NC(=O)CCc2cccc(OC)c2)c1
- IC50 [4]: 93 nM
- solubility [2]: 0.275 µg/mL

SMILES: CC(=O)N1CCN(c2cc(-c3ccc(Sc4ccccc4C(C)C)c(C(F)(F)F)c3)ccn2)CC1
- IC50 [6]: 93 nM

SMILES: Cc1ccc(NC(=O)[C@H]2C[C@H](CN3CCN(C)CC3)C2)cc1Nc1nccc(-c2cccnc2)n1
- IC50 [1]: > 1000 nM
- solubility [2]: 2000 µM

SMILES: COC(=O)N[C@@H](C(=O)N1CCC[C@@H]1c1ncc(-c2ccc(-n3ccc4c(-c5cnc([C@H]6CCCN6C(=O)[C@H](NC(=O)OC)C(C)C)[nH]5)csc43)c(Cl)c2)[nH]1)C(C)C
- EC50 [9]: < 1 nM

SMILES: COC(=O)N[C@@H](C(=O)N1CCC[C@@H]1c1ncc(-c2ccc(-c3cc4oc(-c5cnc([C@H]6CCCN6C(=O)[C@H](NC(=O)OC)C(C)C)[nH]5)cc4s3)cc2)[nH]1)C(C)C
- EC50 [9]: < 1 nM

SMILES: CC/C=N/OCC(O)CNC(C)(C)C (stereo not drawn)
- IC50 [28]: 1550 nM
- IC50 [29]: 26300 nM

SMILES: NC12CCC(CC1)CC2
- pKa [7]: 11

SMILES: O=C(C1[C@@H]2CC[C@@]1(c1ccccc1)C2)N1CCCCC1 (stereo partly drawn)
- logD [18]: 3.7
- solubility [2]: 492 µM

SMILES: NC12CCC(CC1)C2
- pKa [7]: 11

SMILES: CC(=O)N1CCN(C(=O)/C=C/c2ccc(Sc3ccccc3C(C)C)c(C(F)(F)F)c2)CC1
- IC50 [6]: 60 nM
